Experimental data taken from PMC8286840, “Identifying SARS-CoV-2 antiviral compounds by screening for small molecule inhibitors of Nsp3 papain-like protease” (Biochemical Journal, 2021).
Where a name gives a salt, the structure may show the parent alone. Read-outs that look alike come from different tables or passages of the source.

Experiments:
[1] = target: T1, SARS-CoV-2 PLpro (nsp3 1564–1878) (Severe acute respiratory syndrome coronavirus 2, UniProt P0DTD1); experiment: biochemical; set-up: FRET-quenched peptide (Pro3) cleavage by PLpro, 10 min pre-incubation, slope over 20 min, normalised to no-compound control; conditions: read-out: % of control remaining
[2] = target: T1, SARS-CoV-2 PLpro (nsp3 1564–1878); experiment: biochemical; set-up: FRET-quenched peptide (Pro3) cleavage by PLpro, 10 min pre-incubation, slope over 20 min, normalised to no-compound control; conditions: read-out: % of control remaining; remark: listed apart in the source

`Nc1nccc(/C=C/c2ccccc2)n1` [TCN238] showed a remaining activity at 3.75 µM ([1]; Well no.=7855, high concentration screen) of 94.5% and a remaining activity at 1.25 µM ([2]; Well no.=7855, low concentration screen) of 99.5%.
In the case of `O=C(NNC(=O)c1ccc(CNS(=O)(=O)c2ccc(F)c(Cl)c2)cc1)c1ccccc1` [TCN-201], the remaining activity at 3.75 µM ([1]; Well no.=5514, high concentration screen) is reported as 97.4% and the remaining activity at 1.25 µM ([2]; Well no.=5514, low concentration screen) is reported as 96.4%.
In the case of `Clc1cnc(Oc2ccc(Oc3ncc(Cl)cc3Cl)cc2)c(Cl)c1` [TCPOBOP], the remaining activity at 3.75 µM ([1]; Well no.=1425, high concentration screen) is reported as 102% and the remaining activity at 1.25 µM ([2]; Well no.=1425, low concentration screen) is reported as 102%.
In the case of `COc1ccc(C(=O)Nc2sc3c(c2C(N)=O)CCCC3)cc1OC` [TCS 359 - 2-[(3,4-Dimethoxybenzoyl)amino]-4,5,6,7-benzo[b]thiophene-3-carboxamide], the remaining activity at 3.75 µM ([1]; Well no.=2580, high concentration screen) is reported as 90% and the remaining activity at 1.25 µM ([2]; Well no.=2580, low concentration screen) is reported as 93.7%.
`Cn1c(SCC(=O)N2CCC[C@H]2C(=O)Nc2ccccc2-c2ccccc2)nc2ccccc21` [TCS 1102] gave a remaining activity at 3.75 µM ([1]; Well no.=8429, high concentration screen) of 98.6% and a remaining activity at 1.25 µM ([2]; Well no.=8429, low concentration screen) of 98.6%.
Work on `COc1cc2c(cc1OC)CN(C(=O)[C@@H](NCc1ccncc1)C(C)(C)C)CC2` [TCS-OX2-29] yielded a remaining activity at 3.75 µM ([1]; Well no.=6993, high concentration screen) of 101% and a remaining activity at 1.25 µM ([2]; Well no.=6993, low concentration screen) of 107%.
With `CC1(C)CC(O)CC(C)(C)N1[O]` [TEMPOL] the remaining activity at 3.75 µM [1] was 95.9% and the remaining activity at 1.25 µM [2] was 93.1%.
Molecule `CC1(C)CCCC(C)(C)N1[O]` [TEMPO] has a remaining activity at 3.75 µM [1] of 99.1% and a remaining activity at 1.25 µM [2] of 95.5%.
`CCSC(N)=Nc1ccc(C(F)(F)F)cc1` [TFPI hydrochloride] gave a remaining activity at 3.75 µM ([1]; Well no.=1389, high concentration screen) of 93.8% and a remaining activity at 1.25 µM ([2]; Well no.=1389, low concentration screen) of 95.8%.
`Nc1nc(N)c2nc(-c3cccc(O)c3)c(-c3cccc(O)c3)nc2n1` [TG100-115] gave a remaining activity at 3.75 µM ([1]; Well no.=4846, high concentration screen) of 99.1% and a remaining activity at 1.25 µM ([2]; Well no.=4846, low concentration screen) of 99.1%.
`Cc1cnc(Nc2ccc(N3CCN(C)CC3)cc2)nc1Nc1cccc(S(=O)(=O)NC(C)(C)C)c1` [TG101209] was tested, and the remaining activity at 3.75 µM ([1]; Well no.=2805, high concentration screen) was 96.7% and the remaining activity at 1.25 µM ([2]; Well no.=2805, low concentration screen) was 94%.
`Cc1cnc(Nc2ccc(OCCN3CCCC3)cc2)nc1Nc1cccc(S(=O)(=O)NC(C)(C)C)c1` [TG101348] showed a remaining activity at 3.75 µM ([1]; Well no.=2853, high concentration screen) of 98.3% and a remaining activity at 1.25 µM ([2]; Well no.=2853, low concentration screen) of 95.4%.
In the case of `O=c1[nH]oc2c1CCNC2` [THIP hydrochloride], the remaining activity at 3.75 µM ([1]; Well no.=1328, high concentration screen) is reported as 97.2% and the remaining activity at 1.25 µM ([2]; Well no.=1328, low concentration screen) is reported as 96.3%.
With `Cc1ccccc1CN1C(=O)C2=C(CCN(Cc3ccccc3)C2)N2CCN=C12` [TIC10] the remaining activity at 3.75 µM [1] was 96.2% and the remaining activity at 1.25 µM [2] was 97.7%.
Work on `Cc1cc(COc2nc(N)nc3ccn(Cc4ccccn4)c23)no1` [TLR7 agonist 2] yielded a remaining activity at 3.75 µM ([1]; Well no.=8227, high concentration screen) of 103% and a remaining activity at 1.25 µM ([2]; Well no.=8227, low concentration screen) of 106%.
For `CCCCc1nc2c(N)nc3ccccc3c2n1Cc1ccc(CN)cc1` [TLR7/8 agonist 1 (dihydrochloride)], the remaining activity at 3.75 µM ([1]; Well no.=8259, high concentration screen) was 99.6% and the remaining activity at 1.25 µM ([2]; Well no.=8259, low concentration screen) was 102%.
`O=C(COCC(=O)Nc1ccc(Cl)cc1C(=O)O)Nc1cccc(-c2ccoc2)c1` [TM5441] gave a remaining activity at 3.75 µM ([1]; Well no.=6540, high concentration screen) of 105% and a remaining activity at 1.25 µM ([2]; Well no.=6540, low concentration screen) of 109%.
`CCN(CC)CCCCCCCCOC(=O)c1cc(OC)c(OC)c(OC)c1` [TMB-8 hydrochloride] was tested, and the remaining activity at 3.75 µM ([1]; Well no.=101, high concentration screen) was 104% and the remaining activity at 1.25 µM ([2]; Well no.=101, low concentration screen) was 104%.
`CP(=O)(O)C1=CCNCC1` [TPMPA] was tested, and the remaining activity at 3.75 µM ([1]; Well no.=1474, high concentration screen) was 102% and the remaining activity at 1.25 µM ([2]; Well no.=1474, low concentration screen) was 100%.
In the case of `COc1cccc(OC)c1-c1ccc(C[C@H](NC(=O)c2c(Cl)cccc2Cl)C(=O)O)cc1` [TR-14035], the remaining activity at 3.75 µM ([1]; Well no.=8514, high concentration screen) is reported as 93.8% and the remaining activity at 1.25 µM ([2]; Well no.=8514, low concentration screen) is reported as 96.3%.
`Clc1ccccc1C(c1ccccc1)(c1ccccc1)n1cccn1` [TRAM-34] was tested, and the remaining activity at 3.75 µM ([1]; Well no.=4707, high concentration screen) was 103% and the remaining activity at 1.25 µM ([2]; Well no.=4707, low concentration screen) was 107%.
In the case of `CC(C)C[C@H](NC(=O)[C@H](CC(C)C)NC(=O)[C@H](Cc1ccccc1)NC(=O)[C@@H](N)CO)C(=O)N[C@@H](CCCN=C(N)N)C(=O)N[C@@H](CC(N)=O)C(=O)O` [TRAP-6], the remaining activity at 3.75 µM ([1]; Well no.=6278, high concentration screen) is reported as 103%, the remaining activity at 3.75 µM ([1]; Well no.=8364, high concentration screen) is reported as 97.2% and the remaining activity at 1.25 µM ([2]; Well no.=6278, low concentration screen) is reported as 101%. The remaining activity at 1.25 µM ([2]; Well no.=8364, low concentration screen) was 98.5%.
`COC(=O)[C@H](Cc1c[nH]c2ccccc12)N(Cc1ccccc1)Cc1ccccc1` [TRPM8 antagonist 2] gave a remaining activity at 3.75 µM ([1]; Well no.=7732, high concentration screen) of 97.5% and a remaining activity at 1.25 µM ([2]; Well no.=7732, low concentration screen) of 95.3%.
Molecule `Cc1[nH]c(/C=C2\C(=O)Nc3ccccc32)c(C)c1CCC(=O)O` [TSU-68 (SU6668)] has a remaining activity at 3.75 µM ([1]; Well no.=4899, high concentration screen) of 95.8% and a remaining activity at 1.25 µM ([2]; Well no.=4899, low concentration screen) of 99.4%.
`C/C(=C\c1ccc(C(=O)O)cc1)c1ccc2c(c1)C(C)(C)CCC2(C)C` [TTNPB] gave a remaining activity at 3.75 µM ([1]; Well no.=1429, high concentration screen) of 99.8%, a remaining activity at 3.75 µM ([1]; Well no.=4436, high concentration screen) of 100% and a remaining activity at 1.25 µM ([2]; Well no.=1429, low concentration screen) of 97.8%. For the same molecule, the remaining activity at 1.25 µM ([2]; Well no.=4436, low concentration screen) was 93%.
With `C#CCN[C@@H]1CCc2ccccc21` [TVP1022] the remaining activity at 3.75 µM ([1]; Well no.=5527, high concentration screen) was 112% and the remaining activity at 1.25 µM ([2]; Well no.=5527, low concentration screen) was 101%.
With `Nc1cccc(-c2cc3c(Oc4cccc(O)c4)ncnc3[nH]2)c1` [TWS119] the remaining activity at 3.75 µM ([1]; Well no.=4612, high concentration screen) was 99.7% and the remaining activity at 1.25 µM ([2]; Well no.=4612, low concentration screen) was 100%.
Molecule `Cc1cc(C=C2C(=O)C=CC2=O)cc(C)c1O` [TX-1918] has a remaining activity at 3.75 µM ([1]; Well no.=2677, high concentration screen) of 98.1% and a remaining activity at 1.25 µM ([2]; Well no.=2677, low concentration screen) of 96.7%.
`CC(C)(C)C(=O)C(=Nc1ccc(Cl)cc1)NNc1ccc(Cl)cc1` [TY-52156] was tested, and the remaining activity at 3.75 µM ([1]; Well no.=7819, high concentration screen) was 104% and the remaining activity at 1.25 µM ([2]; Well no.=7819, low concentration screen) was 105%.
Molecule `C=CC[C@@H]1/C=C(\C)C[C@H](C)C[C@H](OC)[C@H]2O[C@@](O)(C(=O)C(=O)N3CCCC[C@H]3C(=O)O[C@H](/C(C)=C/[C@@H]3CC[C@@H](O)[C@H](OC)C3)[C@H](C)[C@@H](O)CC1=O)[C@H](C)C[C@@H]2OC` [Tacrolimus (monohydrate)] has a remaining activity at 3.75 µM ([1]; Well no.=6306, high concentration screen) of 93.9%, a remaining activity at 3.75 µM ([1]; Well no.=7308, high concentration screen) of 107% and a remaining activity at 1.25 µM ([2]; Well no.=6306, low concentration screen) of 96.8%. The remaining activity at 1.25 µM ([2]; Well no.=7308, low concentration screen) was 104%.
With `CN1CC(=O)N2[C@H](c3ccc4c(c3)OCO4)c3[nH]c4ccccc4c3C[C@@H]2C1=O` [Tadalafil] the remaining activity at 3.75 µM ([1]; Well no.=8188, high concentration screen) was 95.9% and the remaining activity at 1.25 µM ([2]; Well no.=8188, low concentration screen) was 95%.
`CC(=O)N1N=C(c2ccc(N)cc2)c2cc3c(cc2C[C@H]1C)OCO3` [Talampanel] gave a remaining activity at 3.75 µM ([1]; Well no.=5791, high concentration screen) of 97.1%, a remaining activity at 3.75 µM ([1]; Well no.=6496, high concentration screen) of 99.6% and a remaining activity at 1.25 µM ([2]; Well no.=5791, low concentration screen) of 97.9%. It also gave a remaining activity at 1.25 µM ([2]; Well no.=6496, low concentration screen) of 96.3%.
Molecule `C[C@@H]1CN(Cc2ccc(F)cc2)[C@@H](C)CN1C(=O)c1cc2c(C(=O)C(=O)N(C)C)cn(C)c2cc1Cl` [Talmapimod] has a remaining activity at 3.75 µM ([1]; Well no.=7304, high concentration screen) of 91.9% and a remaining activity at 1.25 µM ([2]; Well no.=7304, low concentration screen) of 99.8%.
In the case of `CC[C@H](NC(=O)c1c(O)c(-c2ccccc2)nc2ccccc12)c1ccccc1` [Talnetant], the remaining activity at 3.75 µM ([1]; Well no.=5814, high concentration screen) is reported as 97.8%, the remaining activity at 3.75 µM ([1]; Well no.=8479, high concentration screen) is reported as 100% and the remaining activity at 1.25 µM ([2]; Well no.=5814, low concentration screen) is reported as 97.3%. The remaining activity at 1.25 µM ([2]; Well no.=8479, low concentration screen) was 104%.
